System: 287954-098-R-J1 tumor spheroid viability
Assay: Anticancer human tumor 287954-098-R-J1 patient-derived Ewing sarcoma cell line growth inhibition
Details: spheroids with HUVEC and MSC; for IC50: curve of first compound; for viability, T/C: stronger effect = lower value
Method in brief: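 Single agents and combinations were tested on spheroids built from tumor cells plus HUVEC and hMSC, at half-log dilutions starting at or near clinical Cmax, else 10 microM; final DMSO 0.25% (v/v).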

[1] = second compound 1 µM, first compound 0.0316 µM
[2] = second compound 1 µM, first compound 0.1 µM
[3] = second compound 1 µM, first compound 0.316 µM
[4] = second compound 1 µM, first compound 1 µM
[5] = second compound 1 µM, first compound 3.16 µM
[6] = second compound 1 µM, first compound 10 µM
[7] = second compound 3.16 µM, first compound 0.0316 µM
[8] = second compound 3.16 µM, first compound 0.1 µM
[9] = second compound 3.16 µM, first compound 0.316 µM
[10] = second compound 3.16 µM, first compound 1 µM
[11] = second compound 3.16 µM, first compound 3.16 µM
[12] = second compound 3.16 µM, first compound 10 µM
[13] = second compound 10 µM, first compound 0.0316 µM
[14] = second compound 10 µM, first compound 0.1 µM
[15] = second compound 10 µM, first compound 0.316 µM
[16] = second compound 10 µM, first compound 1 µM
[17] = second compound 10 µM, first compound 3.16 µM
[18] = second compound 10 µM, first compound 10 µM
[19] = second compound 31.6 µM, first compound 0.0316 µM
[20] = second compound 31.6 µM, first compound 0.1 µM
[21] = second compound 31.6 µM, first compound 0.316 µM
[22] = second compound 31.6 µM, first compound 1 µM
[23] = second compound 31.6 µM, first compound 3.16 µM
[24] = second compound 31.6 µM, first compound 10 µM
[25] = second compound 100 µM, first compound 0.0316 µM
[26] = second compound 100 µM, first compound 0.1 µM
[27] = second compound 100 µM, first compound 0.316 µM
[28] = second compound 100 µM, first compound 1 µM
[29] = second compound 100 µM, first compound 3.16 µM
[30] = second compound 100 µM, first compound 10 µM
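Further: spheroids exposed to compound for 7 days before viability readout.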
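Wherever viability, T/C is given: luminescent signal taken as surrogate of viable cell content; 100% = DMSO vehicle control viability and lower means growth inhibition.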

What does the source list for `COc1ccc([C@@H](O)c2cc(-c3ncnc4cc(N5CCOCC5)ccc34)c(F)cc2Cl)nn1` + Cn1nnc2c(C(N)=O)ncn2c1=O?
IC50 (second compound 1 µM): > 10 µM; IC50 (second compound 3.16 µM): > 10 µM; IC50 (second compound 10 µM): > 10 µM; IC50 (second compound 31.6 µM): > 10 µM; IC50 (second compound 100 µM): > 10 µM; viability, T/C [1]: 107%; viability, T/C [2]: 109%; viability, T/C [3]: 109%; viability, T/C [4]: 112%; viability, T/C [5]: 101%; viability, T/C [6]: 92.8%; viability, T/C [7]: 105%; viability, T/C [8]: 105%; viability, T/C [9]: 104%; viability, T/C [10]: 107%; viability, T/C [11]: 101%; viability, T/C [12]: 94.5%; viability, T/C [13]: 107%; viability, T/C [14]: 106%; viability, T/C [15]: 101%; viability, T/C [16]: 105%; viability, T/C [17]: 105%; viability, T/C [18]: 101%; viability, T/C [19]: 103%; viability, T/C [20]: 111%; viability, T/C [21]: 105%; viability, T/C [22]: 112%; viability, T/C [23]: 110%; viability, T/C [24]: 97%; viability, T/C [25]: 102%; viability, T/C [26]: 110%; viability, T/C [27]: 104%; viability, T/C [28]: 109%; viability, T/C [29]: 96.9%; viability, T/C [30]: 84%

How did the IC50 (second compound 30 pM) turn out when `[2H]c1nc(C)nc([2H])c1-c1cc(NC[C@@H](C)c2cccc3c(C(=O)NC)ccnc23)ncn1` + COc1cc2c(cc1O)CCNC21CSC2c3c(OC(C)=O)c(C)c4c(c3C(COC1=O)N1C(O)C3Cc5cc(C)c(OC)c(O)c5C(C21)N3C)OCO4 was run?
The IC50 was over 10 µM.

What about the IC50 (second compound 94.9 pM) of the same compound?
The IC50 was over 10 µM.

And the IC50 (second compound 0.0003 µM)?
Its IC50 is over 10 µM.

What about the IC50 (second compound 0.000949 µM) of the same compound?
Its IC50 is under 0.0316 µM.

What about the IC50 (second compound 0.003 µM) of the same compound?
The IC50 was under 0.0316 µM.

What about the viability, T/C (second compound 30 pM, first compound 0.0316 µM) of the same compound?
Its viability, T/C is 109%.

What about the viability, T/C (second compound 30 pM, first compound 0.1 µM) of the same compound?
Its viability, T/C is 104%.

What about the viability, T/C (second compound 30 pM, first compound 0.316 µM) of the same compound?
The viability, T/C was 104%.

And the viability, T/C (second compound 30 pM, first compound 1 µM)?
Its viability, T/C is 108%.

And the viability, T/C (second compound 30 pM, first compound 3.16 µM)?
The viability, T/C was 109%.

What about the viability, T/C (second compound 30 pM, first compound 10 µM) of the same compound?
The viability, T/C was 98.6%.

What about the viability, T/C (second compound 94.9 pM, first compound 0.0316 µM) of the same compound?
Its viability, T/C is 106%.

What about the viability, T/C (second compound 94.9 pM, first compound 0.1 µM) of the same compound?
Its viability, T/C is 114%.

What about the viability, T/C (second compound 94.9 pM, first compound 0.316 µM) of the same compound?
Its viability, T/C is 107%.

And the viability, T/C (second compound 94.9 pM, first compound 1 µM)?
The viability, T/C was 110%.

And the viability, T/C (second compound 94.9 pM, first compound 3.16 µM)?
The viability, T/C was 101%.

What about the viability, T/C (second compound 94.9 pM, first compound 10 µM) of the same compound?
Its viability, T/C is 96.7%.

What about the viability, T/C (second compound 0.0003 µM, first compound 0.0316 µM) of the same compound?
The viability, T/C was 105%.

And the viability, T/C (second compound 0.0003 µM, first compound 0.1 µM)?
Its viability, T/C is 108%.

And the viability, T/C (second compound 0.0003 µM, first compound 0.316 µM)?
The viability, T/C was 112%.

And the viability, T/C (second compound 0.0003 µM, first compound 1 µM)?
Its viability, T/C is 107%.

What about the viability, T/C (second compound 0.0003 µM, first compound 3.16 µM) of the same compound?
Its viability, T/C is 95.4%.

And the viability, T/C (second compound 0.0003 µM, first compound 10 µM)?
The viability, T/C was 89.2%.

What about the viability, T/C (second compound 0.000949 µM, first compound 0.0316 µM) of the same compound?
Its viability, T/C is 0.38%.

What about the viability, T/C (second compound 0.000949 µM, first compound 0.1 µM) of the same compound?
Its viability, T/C is 0.51%.

What about the viability, T/C (second compound 0.000949 µM, first compound 0.316 µM) of the same compound?
The viability, T/C was 0.33%.

And the viability, T/C (second compound 0.000949 µM, first compound 1 µM)?
The viability, T/C was 0.67%.

And the viability, T/C (second compound 0.000949 µM, first compound 3.16 µM)?
Its viability, T/C is 0.26%.

And the viability, T/C (second compound 0.000949 µM, first compound 10 µM)?
Its viability, T/C is 0.31%.

And the viability, T/C (second compound 0.003 µM, first compound 0.0316 µM)?
Its viability, T/C is 0.21%.

And the viability, T/C (second compound 0.003 µM, first compound 0.1 µM)?
The viability, T/C was 0.24%.

What about the viability, T/C (second compound 0.003 µM, first compound 0.316 µM) of the same compound?
The viability, T/C was 0.17%.

And the viability, T/C (second compound 0.003 µM, first compound 1 µM)?
The viability, T/C was 0.15%.

What about the viability, T/C (second compound 0.003 µM, first compound 3.16 µM) of the same compound?
Its viability, T/C is 0.14%.

What about the viability, T/C (second compound 0.003 µM, first compound 10 µM) of the same compound?
The viability, T/C was 0.25%.

How did the IC50 (second compound 1 µM) turn out when `CC(C)n1c(=O)n(C)c2cnc3cc(F)c(-c4ccc(OCCCN5CCCCC5)nc4)cc3c21` + Cn1nnc2c(C(N)=O)ncn2c1=O was run?
Its IC50 is over 10 µM.

What about the IC50 (second compound 3.16 µM) of the same compound?
Its IC50 is over 10 µM.

And the IC50 (second compound 10 µM)?
Its IC50 is over 10 µM.

And the IC50 (second compound 31.6 µM)?
Its IC50 is over 10 µM.

What about the IC50 (second compound 100 µM) of the same compound?
Its IC50 is over 10 µM.

And the viability, T/C [1]?
The viability, T/C was 97%.

What about the viability, T/C [2] of the same compound?
The viability, T/C was 97.6%.

And the viability, T/C [3]?
Its viability, T/C is 110%.

What about the viability, T/C [4] of the same compound?
The viability, T/C was 108%.

What about the viability, T/C [5] of the same compound?
The viability, T/C was 105%.

What about the viability, T/C [6] of the same compound?
Its viability, T/C is 97.9%.

What about the viability, T/C [7] of the same compound?
The viability, T/C was 106%.

What about the viability, T/C [8] of the same compound?
Its viability, T/C is 110%.

What about the viability, T/C [9] of the same compound?
Its viability, T/C is 110%.

What about the viability, T/C [10] of the same compound?
Its viability, T/C is 112%.

And the viability, T/C [11]?
The viability, T/C was 118%.

And the viability, T/C [12]?
Its viability, T/C is 85.9%.

What about the viability, T/C [13] of the same compound?
The viability, T/C was 109%.

And the viability, T/C [14]?
Its viability, T/C is 105%.

And the viability, T/C [15]?
The viability, T/C was 104%.

And the viability, T/C [16]?
Its viability, T/C is 109%.

And the viability, T/C [17]?
Its viability, T/C is 118%.

And the viability, T/C [18]?
The viability, T/C was 79.6%.

What about the viability, T/C [19] of the same compound?
The viability, T/C was 113%.

What about the viability, T/C [20] of the same compound?
Its viability, T/C is 110%.

And the viability, T/C [21]?
Its viability, T/C is 105%.

What about the viability, T/C [22] of the same compound?
Its viability, T/C is 113%.

And the viability, T/C [23]?
Its viability, T/C is 113%.

And the viability, T/C [24]?
The viability, T/C was 85.2%.

What about the viability, T/C [25] of the same compound?
Its viability, T/C is 92.5%.

And the viability, T/C [26]?
The viability, T/C was 104%.

And the viability, T/C [27]?
The viability, T/C was 94.3%.

And the viability, T/C [28]?
Its viability, T/C is 112%.

What about the viability, T/C [29] of the same compound?
The viability, T/C was 109%.

And the viability, T/C [30]?
The viability, T/C was 103%.

Reference: PubChem BioAssay AID1845194 (Molecular Pharmacology Branch, DTP, NCI, 2023)
